The data set can be described thus: activity coefficient (dimensionless); of the first substance listed, at infinite dilution; xn = mol fraction of the nth substance listed. The settings on record: 101 kPa, Liquid, Chromatography, x1 = 0.

± gives the expanded uncertainty stated by the source.

With `C1CCOC1` [tetrahydrofuran] + CCCCCC[n+]1ccc2ccccc2c1.N#C[S-], the activity coefficient reads like this: (328.15 K) 1.46 ± 0.1; (338.15 K) 1.47 ± 0.1; (348.15 K) 1.48 ± 0.1; (358.15 K) 1.48 ± 0.1; (368.15 K) 1.5 ± 0.1.

With `c1ccsc1` [thiophene] + CCCCCC[n+]1ccc2ccccc2c1.N#C[S-], the activity coefficient was 0.921 ± 0.058 (328.15 K); 0.943 ± 0.059 (338.15 K); 0.963 ± 0.061 (348.15 K); 0.98 ± 0.06 (358.15 K); 0.998 ± 0.062 (368.15 K).

For `Cc1ccccc1` [toluene] + CCCCCC[n+]1ccc2ccccc2c1.N#C[S-], the activity coefficient came to 2.05 ± 0.14 (328.15 K); 2.07 ± 0.14 (338.15 K); 2.08 ± 0.14 (348.15 K); 2.1 ± 0.14 (358.15 K); 2.11 ± 0.14 (368.15 K).

With `O` [water] + CCCCCC[n+]1ccc2ccccc2c1.N#C[S-], the activity coefficient (328.15 K) is 0.401 ± 0.034; the activity coefficient (338.15 K) came to 0.406 ± 0.034; the activity coefficient (348.15 K) amounted to 0.41 ± 0.03; the activity coefficient (358.15 K) is 0.399 ± 0.034; the activity coefficient (368.15 K) is 0.418 ± 0.035.
